The source of these data is US7604990B2, “Methods of regulating differentiation in stem cells” (ES Cell International Pte Ltd., priority 2002, dated 2009).

Common to all, as to type: cell-based, human
The test system of experiment [1] is ERKs (Erk1 and Erk2) in hES cells. The experiment can be described thus: ERK phosphorylation Western blot in hES cells (Example 1). As to the method:
RT-PCR for LPL receptors (A, B), PDGFR-[…] (alpha) and PDGFR-[…] (beta) (C), SPK-1 and SPK-2 (D), with (+) or without (−) RT. Immunostaining of hES cells with Hoechst 33342 (E, H), PDGFR-[…] (F) or PDGFR-[…] (I) and GCTM-2 (G, J) antibodies. S1P, LPA and PDGF stimulate ERKs phosphorylation in hES cells. (K) Western blots experiment were performed using protein lysate from hES cells. Cells were pre-treated or not with U0126 (30 μM, 1 hr) and incubated for 5 min in the absence (C, control) or presence of S1P (S, 10 μM), LPA (L, […]) or PDGF (P, 20 ng/ml). The phosphorylation of Erk1 and Erk2 (P-Erk1 and P-Erk2) was assessed by immunoblotting with a polyclonal anti-active MAP kinase as described in Materials and Methods. After a stripping procedure, the same blots were reprobed with a monoclonal anti-MAP kinase, allowed the detection of Erk1 and Erk2.
hES-3 cells plated without MEF for 24 hrs were depleted of serum for a further 18 hrs. Cells pre-treated or not with U0126 (Sigma, 30 μM, 1 hr), were incubated in the presence of the different agents for 5 min and were lysed by removal of the supernatants and addition of a reducing loading buffer containing 1 mM sodium orthovanadate (Sigma). Protein lysates (approx. 80 μg) were separated by SDS-polyacrylamide gel electrophoresis (10% polyacrylamide, w/v), transferred to nitrocellulose (Hybond-nitrocellulose, Amersham) and immunoblotting was carried out using rabbit polyclonal anti-active mitogen-activated protein (MAPK) antibodies raised against a dually phosphorylated MAPK peptide (Promega, Madison, Wis., USA). Peroxidase-coupled secondary antibody (Dako) was detected by exposure of autoradiographic films in the presence of a chemiluminescent detection reagent (ECL, Amersham). Stripping of antibodies was achieved and membranes were then reprobed with rabbit polyclonal anti-ERK1/2 antibodies (Promega), and then with peroxidase-coupled secondary antibodies (Dako). Membranes probed with either rabbit polyclonal anti-active p38 (Promega) or rabbit polyclonal anti-active JNK (Promega) antibodies were also performed, using the same procedure as described above.
Background: In western blotting, separated proteins are transferred to a membrane and probed.

Experiment [2] relates to hES cells. The experiment is described as follows: Direct observation of hES colonies in serum-depleted medium (Example 4). The protocol:
(A) hES cells grown with feeder, before the depletion in serum. (B) hES cells grown without serum after 8 days (B, C) and 12 days (D, E), in absence (B, D) or presence of S1P (C, E, 10 μM).
For direct observation, hES-3 cells were coated into 12-well plates (3 colonies per well), with or without mouse embryonic feeders (MEFs). The day following the plating, cells were incubated with the different agents in serum free medium containing insulin, transferring and selenium. Media was changed the 2nd day and then every 2 days.

Experiment [3] has as its system hES cells. The experiment is described as follows: Spontaneous differentiation of hES colonies on MEF in serum-free medium, morphology (Example 1). The settings on record: 8 days serum-free on MEF; S1P 10 μM, PDGF 20 ng/ml, LPA up to 50 μM. As to the method:
(A) hES cells grown with MEF, before the depletion of serum from the medium. (B, C, D, E) hES cells grown without serum after 8 days, in the absence (B) or in the presence of S1P (10 μM) (C), PDGF (20 ng/ml) (D), S1P (10 μM) plus PDGF (20 ng/ml) (E). (F) hES cells grown without serum, in the presence or in the absence (control) of S1P (10 μM), PDGF (20 ng/ml), S1P (10 μM) plus PDGF (20 ng/ml). In A-E, data are representative of at least 3 independent experiments. In F, data expressed as percentages of alkaline phosphatase activity in absence of serum for eight days (% of control), are the means±SEM of at least 2 independent experiments, each run in triplicate.
hES-3 cells were cultured as previously described^1. The serum-free culture medium consisted of DMEM (without sodium pyruvate, glucose 4500 mg/l, Invitrogen, Mount Waverley, VIC, Australia) supplemented with insulin/transferrin/selenium 1%, β-mercaptoethanol 0.1 mM, NEAA 1%, glutamine 2 mM, Hepes 25 mM, penicillin 50 U/ml and streptomycin […] (all from Invitrogen). Medium was changed every 2 days and cells were passaged every week. S1P and dihydro-S1P were obtained from Biomol (Plymouth Meeting, Pa., USA) and were dissolved in methanol. LPA was obtained from Sigma (Castle Hill, NSW, Australia) and was dissolved in ethanol. Extemporaneous dilutions of all lipids were made in water containing 0.1% fatty acid-free bovine serum albumin (BSA) (Sigma). Human PDGF-AB, PDGF-AA, PDGF-BB were from PreproTech Inc. (Rocky Hill, N.J., USA).

In experiment [4] the test system is hES cells. The experiment can be described thus: Spontaneous differentiation of hES colonies on MEF in serum-free medium, morphology (Example 2). The settings on record: 2 weeks serum-free on MEF; S1P 10 μM, PDGF-AB 20 ng/ml, LPA up to 50 μM. The protocol: hES-3 cells were cultured as previously described^1. The serum-free culture medium consisted of DMEM (without sodium pyruvate, glucose 4500 mg/l, Invitrogen, Mount Waverley, VIC, Australia) supplemented with insulin/transferrin/selenium 1%, β-mercaptoethanol 0.1 mM, NEAA 1%, glutamine 2 mM, Hepes 25 mM, penicillin 50 U/ml and streptomycin […] (all from Invitrogen). Media was changed every 2 days and cells were passaged every week S1P and dihydro-S1P were obtained from Biomol (Plymouth Meeting, Pa., USA). LPA was obtained from Sigma (Castle Hill, NSW, Australia). Extemporaneous dilutions of all lipids were made in water containing 0.1% fatty acid-free bovine serum albumin (BSA) (Sigma). […] Human PDGF-AB, PDGF-AA, PDGF-BB were from Prepro Tech Inc. (Rocky Hill, N.J., USA) and were used at 20 ng/ml.

For experiment [5], the system named is hES cells. The experiment can be described thus: ELISA-based GCTM-2 quantification in hES cells (Example 2). The protocol:
hES-3 cells were cultured as previously described^1. The serum-free culture medium consisted of DMEM (without sodium pyruvate, glucose 4500 mg/l, Invitrogen, Mount Waverley, VIC, Australia) supplemented with insulin/transferrin/selenium 1%, β-mercaptoethanol 0.1 mM, NEAA 1%, glutamine 2 mM, Hepes 25 mM, penicillin 50 U/ml and streptomycin […] (all from Invitrogen). Media was changed every 2 days and cells were passaged every week S1P and dihydro-S1P were obtained from Biomol (Plymouth Meeting, Pa., USA). LPA was obtained from Sigma (Castle Hill, NSW, Australia). Extemporaneous dilutions of all lipids were made in water containing 0.1% fatty acid-free bovine serum albumin (BSA) (Sigma). S1P and dihydro-S1P were used at […]. Human PDGF-AB, PDGF-AA, PDGF-BB were from Prepro Tech Inc. (Rocky Hill, N.J., USA) and were used at 20 ng/ml.
Cells were fixed in 100% ethanol and immunostained with GCTM-2 followed by alkaline phosphatase-coupled secondary antibodies (Dako). Alkaline phosphatase activity was detected by adding a solution of 4-nitrophenyl phosphate (Roche), and the concentration of the reaction product was determined by reading the optical density (OD) at 405 nm. In order to validate the technique as an accurate indicator of the proportion of GCTM-2 positive cells, standard curves were carried out with the embryonal carcinoma cell line GCT27C4, known to express GCTM-2^20.
On the technique in general: ELISA stands for enzyme-linked immunosorbent assay.

Experiment [6] concerns ERKs (Erk1 and Erk2) in hES cells. The experiment can be described thus: ERK phosphorylation Western blot in hES cells (Example 5). Conditions: U0126 30 μM, 1 hr pre-treatment. The protocol: Western blots experiments were performed using protein lysate from hES cells. (A) Cells were pre-treated or not with U0126 (30 μM, 1 hr) and incubated for 5 min in the absence (C, control) or presence of S1P (10 μM). (B) Cells were incubated for different time periods in the absence or presence of S1P (10 μM). (C) Cells were incubated for 5 min with various concentrations of S1P. The phosphorylation of Erk1 and Erk2 (P-Erk1 and P-Erk2) was assessed by immunoblotting with a polyclonal anti-active MAP kinase as described in Materials and Methods. After a stripping procedure, the same blots reprobed with a monoclonal anti-MAP kinase, allowed the detection of Erk1 and Erk2.
For immunoblot analysis, cells were transferred into 24 well plates (8 colonies per well) without MEFs, and 24 hr later, were grown in the absence of serum for 18 hrs.
In some experiments, cells were pre-treated for 1 hr with U0126 (30 μM) or for 18 hrs with PTX (100 μg/ml).
hES3 cells were lysed following removal of the supernatants by addition of a reducing loading buffer (2% SDS, 62.5 mM Tris pH 6.8, 0.1 M DTT, 0.01% bromophenol blue) containing 1 mM sodium orthovanadate. Samples were boiled for 10 min and centrifuged at 13000 g for 15 min, and protein lysates (approx. 80 μg) were separated by SDS-polyacrylamide gel electrophoresis (10% polyacrylamide, w/v). Proteins were transferred to nitrocellulose (Hybond-ECL, Amersham) and immunoblotting was carried out with rabbit polyclonal anti-active mitogen-activated protein (MAPK) antibodies raised against a dually phosphorylated MAPK peptide (Promega, Madison, Wis., USA). Peroxidase-coupled secondary antibody (Dako) was detected by exposure of autoradiographic films in the presence of a chemiluminescent detection reagent (ECL, Amersham). Stripping of antibodies was achieved by incubating the membrane during 30 min at 50° C. in a buffer containing 100 mM mercaptoethanol, 2% SDS, 62.5 mM Tris-HCl pH 6.7. The membrane was then reprobing with rabbit polyclonal anti-ERK1/2 antibodies (Promega), and then with peroxidase-coupled secondary antibodies (Dako).

Entries after “also recorded” stand apart in the source; their conditions may differ.

Consider lysophosphatidic acid [LPA], for which, in experiment [1] (hES cells, 5 min, S1P 10 μM, LPA 50 M, PDGF 20 ng/ml), the “phosphorylation of ERKs” value is “stimulated the phosphorylation of ERKs”. Further, in experiment [2] (S1P 10 μM 8 days, LPA up to 50 μM 12 days), the “growth/differentiation of hES colonies on MEFs” value was “did not seem to affect the growth of the colonies; also recorded: inactive”. Moreover, the “effect on cell differentiation, hES cells grown without MEFs” value in experiment [2] (without MEFs, n=3) is “lack of effect”. Besides, in experiment [3], the “colony growth/morphology (spontaneous differentiation)” value is “did not have an obvious effect on growth of the colonies”. Also, the “size or morphology of hES cell colonies (spontaneous differentiation)” value in experiment [4] is “no obvious effect on size or morphology”.
Consider `N#CC(=C(/N)Sc1ccccc1N)/C(C#N)=C(\N)Sc1ccccc1N` [U0126], for which, in experiment [1] (U0126 30 μM, 1 hr pre-treatment), the “effect on S1P-, LPA- and PDGF-stimulated phosphorylation of ERKs” value is recorded as “totally inhibited”. The “effect on PDGF and S1P action on GCTM2 expression” value in experiment [5] (U0126 10 mM for 7 days) is given as “totally inhibited”. In addition, the “effect on S1P-stimulated phosphorylation of ERKs” value in experiment [6] was “totally inhibited”.
Consider `CCCCCCCCCCCCC/C=C/[C@@H](O)[C@H](CO)N(C)C` [DMS, dimethylsphingosine], for which the “effect on PDGF and S1P action (GCTM2)” value in experiment [5] (DMS 3 µM for 7 days) was “inhibited the effect of PDGF and S1P”.
